In US11384060B2, “Amide compounds and use thereof” (ALPHALA CO., LTD., priority 2017, dated 2022):
Where two headings read alike, the source gives them in different places.

Tests used:
[1] = target: T1, glucagon receptor (GCGR) overexpressed CHO-K1 cells or human primary hepatocytes (Homo sapiens, UniProt P47871); experiment: Glucagon cAMP inhibition assay (Cisbio cAMP Dynamic 2 HTRF); type: cell-based
T1 construct: expressed in transfected cells; host or cells: GCGR overexpressed CHO-K1 cells or human primary hepatocytes (endogenous receptor)
In short: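 HTRF read-out of glucagon-induced cAMP, with IC50 from non-linear regression. Cells (GCGR CHO-K1 or human primary hepatocytes) in HBSS/0.1% BSA/800 nM IBMX took compound dilutions for 30 min (final DMSO 1%), then EC50-level glucagon for 30 min at room temperature, then a 60 min lysis/detection step.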

glucagon receptor (GCGR) = target: T2, glucagon receptor (GCGR) (Homo sapiens, UniProt P47871); experiment: I125-glucagon binding assay (competition, GCGR membrane fractions)
T2 construct: expressed in transfected cells; host or cells: CHO-K1 cells overexpressing GCGR (membrane fractions)
In short: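 Competition of 0.0625 nM (final) I^125-glucagon for 30 min at 25° C, after 5 min compound preincubation, using 7.5 μg/well GCGR-overexpressing CHO-K1 membranes in 50 mM Tris pH 7.4, 0.5% BSA. Filtration onto PEI-coated GF/B, micro-beta counting, and non-linear regression gave IC50.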

[2] = inhibition of glucagon (EC50 concentration) induced cAMP production
[3] = competition with I125-glucagon 0.0625 nM, membrane fractions of GCGR overexpressed CHO-K1 cells

T1 sequence (P47871 26-477): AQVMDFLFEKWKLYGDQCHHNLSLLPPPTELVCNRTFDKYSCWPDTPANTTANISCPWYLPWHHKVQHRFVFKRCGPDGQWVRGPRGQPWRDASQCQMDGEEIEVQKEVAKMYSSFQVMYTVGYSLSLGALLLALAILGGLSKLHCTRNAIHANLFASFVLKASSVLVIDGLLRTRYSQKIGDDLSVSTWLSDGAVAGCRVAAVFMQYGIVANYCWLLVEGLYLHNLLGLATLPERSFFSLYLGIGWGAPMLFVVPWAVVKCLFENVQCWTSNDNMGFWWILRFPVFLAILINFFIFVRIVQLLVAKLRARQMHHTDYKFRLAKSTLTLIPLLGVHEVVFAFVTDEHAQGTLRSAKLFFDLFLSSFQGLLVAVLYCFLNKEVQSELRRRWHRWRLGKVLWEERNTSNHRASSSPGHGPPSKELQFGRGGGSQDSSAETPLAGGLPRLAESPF
T2 sequence (P47871 26-477): as above

Row | Structure (SMILES) | IC50 cAMP [1, 2] [nM] | IC50 (glucagon receptor (GCGR); [3]) [nM] | IC50 cAMP [1] [nM] | IC50 (glucagon receptor (GCGR)) [nM]
1 | CCCC[C@@H](COc1ccc(-c2ccc(C(C)(C)C)cc2)cc1)Nc1ccc(C(=O)NCCC(=O)O)cc1 [Compound 1-11, (S)-3-(4-((1-((4′-(tert-butyl)-[1,1′-biphenyl]-4-yl)oxy)hexan-2-yl)amino)benzamido)propanoic Acid] | 320.3 | 150 | – | –
2 | CC[C@H](C)[C@@H](CSc1ccc(-c2cc3ccccc3o2)cc1)Nc1ccc(C(=O)NCCC(=O)O)cc1 [Compound 5-3, 3-(4-(((2S,3S)-1-((4-(benzofuran-2-yl)phenyl)thio)-3-methylpentan-2-yl)amino)benzamido)propanoic Acid] | 946.9 | 400 | – | –
3 | CCCC[C@@H](COc1ccc(-c2ccc(C(F)(F)F)cc2Cl)c(F)c1)Nc1ccc(C(=O)NCCC(=O)O)cc1 [Compound 8-15, (S)-3-(4-((1-((2′-chloro-2-fluor-4′-(trifluromethyl)-[1,1′-biphenyl]-4-yl)oxy)hexan-2-yl)amino)benzamido)propanoic Acid] | 129 | 59 | – | –
4 | CC(C)[C@@H](COc1ccc(-c2ccc(N(C)C)cc2)cc1)Nc1ccc(C(=O)NC[C@@H](O)C(=O)O)cc1 [Compound 1-21, (R)-3-(4-(((S)-1-((4′-(dimethylamino)-[1,1′-biphenyl]-4-yl)oxy)-3-methylbutan-2-yl)amino)benzamido)-2-hydroxypropanoic Acid] | >30000 | > 30000 | – | –
5 | CCCC[C@@H](COc1ccc(-c2ccc(Cl)cc2Cl)cc1)Nc1ccc(C(=O)NCCC(=O)O)cc1 [Compound 1-17, (S)-3-(4-((1-((2′,4′-dichloro-[1,1′-biphenyl]-4-yl)oxy)hexan-2-yl)amino)benzamido)propanoic Acid] | 864.4 | 34 | – | –
6 | CCCOC[C@H](Cc1ccc(-c2cccc(C(F)(F)F)c2)cc1)Nc1ccc(C(=O)NCCC(=O)O)cc1 [Compound 19-23, (S)-3-(4-((1-propoxy-3-(3′-(trifluoromethyl)-[1,1′-biphenyl]-4-yl)propan-2-yl)amino)benzamido)propanoic Acid] | – | – | 1126 | 1310
7 | CC(C)[C@@H](COc1ccc(-c2cc3ccccc3o2)nc1)Nc1ccc(C(=O)NCCC(=O)O)cc1 [Compound 10-6, (S)-3-(4-((1-((6-(benzofuran-2-yl)pyridin-3-yl)oxy)-3-methylbutan-2-yl)amino)benzamido)propanoic Acid] | 2650 | 252 | – | –
8 | CC(C)C[C@H](Nc1ccc(C(=O)NCCC(=O)O)cc1)C(=O)Nc1ccc(-c2cc3ccccc3o2)cc1 [Compound 23-5, (S)-3-(4-((1-((4-(benzofuran-2-yl)phenyl)amino)-4-methyl-1-oxopentan-2-yl)amino)benzamido)propanoic Acid] | – | – | 3500 | 80
9 | Cc1c(-c2nnc([C@H](Cc3ccc(-c4ccc(C(F)(F)F)cc4)cc3)Nc3ccc(C(=O)NCCC(=O)O)cc3)o2)oc2ccccc12 [Compound 20-6, (S)-3-(4-((1-(5-(3-methylbenzofuran-2-yl)-1,3,4-oxadiazol-2-yl)-2-(4′-(trifluoromethyl)-[1,1′-biphenyl]-4-yl)ethyl)amino)benzamido)propanoic Acid] | – | – | >30000 | 2680
10 | CC(C)(C)[C@@H](COc1ccc(-c2ccc(C(F)(F)F)cc2Cl)cc1)Nc1ccc(C(=O)NCCC(=O)O)cc1 [Compound 1-42, (S)-3-(4-((1-((2′-chloro-4′-(trifluoromethyl)-[1,1′-biphenyl]-4-yl)oxy)-3,3-dimethylbutan-2-yl)amino)benzamido)propanoic aid] | 298 | 234 | – | –
11 | CCCC[C@@H](COc1ccc(-c2ccc(C(F)(F)F)cc2Cl)cc1)Nc1ccc(C(=O)NCCC(=O)O)cc1 [Compound 1-19, (S)-3-(4-((1-((2′-chloro-4′-(trifluoromethyl)-[1,1′-biphenyl]-4-yl)oxy)hexan-2-yl)amino)benzamido)propanoic Acid] | 93 | 11 | – | –
12 | CCCC[C@@H](COc1ccc(-c2ccc(Cl)cc2Cl)nc1)Nc1ccc(C(=O)NCCC(=O)O)cc1 [Compound 10-7, (S)-3-(4-((1-((6-(2,4-dichlorophenyl)pyridin-3-yl)oxy)hexan-2-yl)amino)benzamido)propanoic Acid] | 732 | 319 | – | –
13 | CC[C@H](C)[C@@H](COc1ccc(-c2ccc(Cl)cc2Cl)cc1)Nc1ccc(C(=O)NCc2nnn[nH]2)cc1 [Compound 1-13, N-((1H-tetrazol-5-yl)methyl)-4-(((2S,3S)-1-((2′,4′-dichloro-[1,1′-biphenyl]-4-yl)oxy)-3-methylpentan-2-yl)amino)benzamide] | 1730 | 141 | – | –
14 | CC[C@H](C)[C@@H](COc1cc(Cl)c(-c2ccc(C(F)(F)F)cc2Cl)cc1Cl)Nc1ccc(C(=O)NCCC(=O)O)cc1 [Compound 3-20, 3-(4-(((2S,3S)-3-methyl-1-((2,2′,5-trichloro-4′-(trifluoromethyl)-[1,1′-biphenyl]-4-yl)oxy)pentan-2-yl)amino)benzamido)propanoic Acid] | 44 | 73 | – | –
15 | CC(C)COC[C@@H](Cc1ccc(-c2ccc(C(C)(C)C)cc2)cc1)Nc1ccc(C(=O)NCCC(=O)O)cc1 [Compound 19-17, (R)-3-(4-((1-(4′-(tert-butyl)-[1,1′-biphenyl]-4-yl)-3-isobutoxypropan-2-yl)amino)benzamido)propanoic Acid] | – | – | 1225 | 1040
16 | CCOC(=O)CCNC(=O)c1ccc(N[C@H](C(=O)Nc2ccc3cc(OC)ccc3c2)[C@@H](C)CC)cc1 [Compound 24-7, Ethyl 3-(4-(((2S,3S)-1-((6-methoxynaphthalen-2-yl)amino)-3-methyl-1-oxopentan-2-yl)amino)benzamido)propanoate] | – | – | 217 | 11400
17 | O=C(NCc1nn[nH]n1)c1ccc(N[C@H](COc2ccc(-c3cc4ccccc4o3)cn2)c2ccccc2)cc1 [Compound 15-1, (S)—N-((2H-tetrazol-5-yl)methyl)-4-((2-((5-(benzofuran-2-yl)pyridin-2-yl)oxy)-1-phenylethyl)amino)benzamide] | – | – | 7356 | 388
18 | CCCC[C@@H](COc1nnc(-c2cc3ccccc3o2)o1)Nc1ccc(C(=O)NCCC(=O)O)cc1 [Compound 22-4, (S)-3-(4-((1-((5-(benzofuran-2-yl)-1,3,4-oxadiazol-2-yl)oxy)hexan-2-yl)amino)benzamido)propanoic Acid] | – | – | >30000 | > 30000
19 | O=C(O)CCNC(=O)c1ccc(NC(COc2ccc(-c3ccc(C(F)(F)F)cc3)cc2)c2ccccc2)cc1 (stereo not shown) [Compound 1-28, 3-(4-((1-phenyl-2-((4′-(trifluoromethyl)-[1,1′-biphenyl]-4-yl)oxy)ethyl)amino)benzamido)propanoic Acid] | 287.7 | 150 | – | –
20 | CC(C)C[C@H](Nc1ccc(C(=O)NCCC(=O)O)cc1)C(=O)Nc1ccc(-c2ccc(Cl)cc2Cl)cc1 [Compound 23-1, (S)-3-(4-((1-((2′,4′-dichloro-[1,1′-biphenyl]-4-yl)amino)-4-methyl-1-oxopentan-2-yl)amino)benzamido)propanoic Acid] | – | – | 3600 | 87
21 | COc1cc(OC[C@@H](Nc2ccc(C(=O)NCCC(=O)O)cn2)C(C)C)ccc1-c1cc2ccccc2o1 [Compound 14-1, (S)-3-(6-((1-(4-(benzofuran-2-yl)-3-methoxyphenoxy)-3-methylbutan-2-yl)amino)nicotinamido)propanoic Acid] | 1232 | 750 | – | –
22 | CCCC[C@@H](COc1ccc(-c2ccc(Cl)cc2Cl)c(Cl)c1)Nc1ccc(C(=O)NCCC(=O)O)cc1 [Compound 3-12, (S)-3-(4-((1-((2,2′,4′-trichloro-[1,1′-biphenyl]-4-yl)oxy)hexan-2-yl)amino)benzamido)propanoic Acid] | 28.1 | 30 | – | –
23 | CCCC[C@@H](COc1ccc(-c2ccc(C(F)(F)F)cc2F)c(OC)c1)Nc1ccc(C(=O)NCCC(=O)O)cn1 [Compound 14-2, (S)-3-(6-((1-((2′-fluoro-2-methoxy-4′-(trifluoromethyl)-[1,1′-biphenyl]-4-yl)oxy)hexan-2-yl)amino)nicotinamido)propanoic Acid] | 508 | 74 | – | –
24 | CCCC[C@@H](COc1ccc(-c2cc3ccccc3o2)cn1)Nc1ccc(C(=O)NCCS(=O)(=O)O)cc1 [Compound 15-23, (S)-2-(4-((1-((5-(benzofuran-2-yl)pyridin-2-yl)oxy)hexan-2-yl)amino)benzamido) ethane-1-sulfonic Acid] | – | – | >30000 | 453
25 | CCC(C)[C@H](Nc1ccc(C(=O)NCCC(=O)O)cc1)c1nnc(-c2oc3ccccc3c2C)o1 (stereo partly drawn) [Compound 20-2, 3-(4-(((1S)-2-methyl-1-(5-(3-methylbenzofuran-2-yl)-1,3,4-oxadiazol-2-yl)butyl)amino)benzamido)propanoic Acid] | – | – | 22191 | 974
26 | CC[C@H](C)[C@@H](COc1ccc(-c2ccc(C(F)(F)F)cc2F)c(C)n1)Nc1ccc(C(=O)NCCC(=O)O)cc1 [Compound 18-6, 3-(4-(((2S,3S)-1-((5-(2-fluoro-4-(trifluoromethyl)phenyl)-6-methylpyridin-2-yl)oxy)-3-methylpentan-2-yl)amino)benzamido)propanoic Acid] | – | – | 204 | 179
